System: patients with major depressive disorder (MDD)
Assay: double-blind fixed dose comparison in major depressive disorder: safety and tolerability
Assay type: in vivo, human
Details: for Early Discontinuation: AEs / Early Discontinuation: All Reasons / Early Discontinuation: Insufficient Response / Incidence of TEAEs: Pts with at least 1 TEAE / Selected TEAEs: anorexia / Selected TEAEs: completed suicide* / Selected TEAEs: constipation / Selected TEAEs: decreased appetite / Selected TEAEs: diarrhea / Selected TEAEs: dizziness / Selected TEAEs: dry mouth / Selected TEAEs: early morn awakening / Selected TEAEs: ejaculation delayed / Selected TEAEs: erectile dysfunction / Selected TEAEs: hypersomnia / Selected TEAEs: increased appetite / Selected TEAEs: initial insomnia / Selected TEAEs: insomnia / Selected TEAEs: intentional self-injury / Selected TEAEs: lethargy / Selected TEAEs: libido decreased / Selected TEAEs: libido increased / Selected TEAEs: middle insomnia / Selected TEAEs: nausea / Selected TEAEs: orgasm abnormal / Selected TEAEs: sedation / Selected TEAEs: sleep disorder / Selected TEAEs: somnolence / Selected TEAEs: suicidal ideation / Selected TEAEs: vomiting / Selected TEAEs: weight decreased / Selected TEAEs: weight increased: number of patients (%), 8 weeks double-blind; for patients discontinued treatment early / patients exhibited at least one Treatment Emergent Adverse Event (TEAE): percent of patients, as given in the text
Experimental: The present study evaluates the efficacy, safety, and tolerability of escitalopram/bupropion combination treatment relative to its component monotherapies, and to placebo in patients with major depressive disorder (MDD).
The study consists of a one-week single-blind placebo lead-in period followed by an 8 week double-blind treatment period. Approximately 135 patients are randomized to each of four treatment groups (placebo, escitalopram oxalate 4 mg, bupropion hydrochloride 150 mg, or escitalopram oxalate 4 mg/bupropion hydrochloride 150 mg), for a total of […].
A randomized, double-blind, fixed-dose, multicenter, parallel-group study is conducted in outpatients with MDD. Patients who meet eligibility criteria at Screening (Visit 1) enter a one-week, single-blind, lead-in period of placebo treatment. Patients who complete the lead-in period and continue to meet all entry criteria at Baseline (Visit 2) are randomly assigned to 8 weeks of double-blind treatment with either placebo, escitalopram 4 mg, bupropion XL 150 mg, or escitalopram 4 mg/bupropion XL 150 mg combination. Assignment to a treatment group is according to a computer-generated randomization schedule.
Safety assessments are made of the patients by a physician at every visit and the evaluation documented. At each visit beginning with Visit 2, patients are queried regarding any adverse events (AEs) since the last visit. Study site personnel record all pertinent information in the electronic Case Report Forms (eCRF). Patients are asked to volunteer information concerning AEs with non-leading question such as “How do you feel?” AEs are collected at Visit 2 and all subsequent visits including early termination.
Dosing: For the single-blind lead-in period, patients are supplied with placebo capsules. For the double-blind period, identical appearing capsules are supplied which contain placebo, escitalopram 4 mg, or bupropion extended-release 150 mg. Medication are supplied in blister cards, each containing 20 capsules arranged in two rows of 10 capsules.
All study medication is administered as a single daily dose throughout the study, preferably at the same time each evening starting on the day the medication is dispensed to the patient. Dosing is subsequently be switched to morning, if preferred. At each visit, patients are instructed to take 2 capsules daily, one from Row 1 and one from Row 2. Patients are instructed to return all unused medication at each study visit. Patients who meet eligibility criteria at Visit 1 are dispensed one blister card containing 20 placebo capsules. Patients are instructed to take two capsules daily as a single dose beginning on the day study medication is dispensed. Patients who meet all eligibility criteria at Visit 2 are assigned a randomization number and dispensed the corresponding blister card for Week 1 of treatment as shown in the Figure below:
Patients are assigned the lowest randomization number available at the site. Patients are instructed to take two capsules daily as a single dose beginning on the day study medication is dispensed. In accordance with their assigned treatment group, patients receive placebo, 4 mg escitalopram, 150 mg bupropion, or 4 mg escitalopram and 150 mg bupropion per day.
At Visit 3, patients are dispensed one blister card for Week 2 of treatment. At Visits 4, 5, and 6, patients are dispensed two blister cards for Weeks 3-4, 5-6, and 7-8 of treatment, respectively. Patients are instructed to continue taking two capsules daily as a single dose. In accordance with their assigned treatment group, patients receive placebo, 4 mg escitalopram, 150 bupropion, or 4 mg escitalopram and 150 mg bupropion per day.

Row | SMILES | Early Discontinuation: AEs | Early Discontinuation: All Reasons | Early Discontinuation: Insufficient Response | Incidence of TEAEs: Pts with at least 1 TEAE | Selected TEAEs: anorexia | Selected TEAEs: completed suicide* [%] | Selected TEAEs: constipation | Selected TEAEs: decreased appetite | Selected TEAEs: diarrhea | Selected TEAEs: dizziness | Selected TEAEs: dry mouth | Selected TEAEs: early morn awakening | Selected TEAEs: ejaculation delayed | Selected TEAEs: erectile dysfunction [%] | Selected TEAEs: hypersomnia [%] | Selected TEAEs: increased appetite | Selected TEAEs: initial insomnia | Selected TEAEs: insomnia | Selected TEAEs: intentional self-injury [%] | Selected TEAEs: lethargy | other results
1 | CC(NC(C)(C)C)C(=O)c1cccc(Cl)c1 (racemic) [bupropion, (±)-1-(3-chlorophenyl)-2-[(1,1-dimethylethyl)amino]-1-propanone] | 10 (7.5%) | 29 (21.6%) | 4 (3.0%) | 101 (75.4%) | 0% | 0 | 6 (4.5%) | 5 (3.7%) | 5 (3.7%) | 2 (1.5%) | 13 (9.7%) | 2 (1.5%) | 0% | 0 | 0 | 3 (2.2%) | 1 (0.7%) | 14 (10.4%) | 0 | 2 (1.5%) | Selected TEAEs: libido decreased: 1 (0.7%); Selected TEAEs: libido increased: 0%; Selected TEAEs: middle insomnia: 3 (2.2%); Selected TEAEs: nausea: 5 (3.7%); Selected TEAEs: orgasm abnormal: 0%; Selected TEAEs: sedation: 1 (0.7%); Selected TEAEs: sleep disorder: 2 (1.5%); Selected TEAEs: somnolence: 2 (1.5%); Selected TEAEs: suicidal ideation: 1 (0.7%); Selected TEAEs: vomiting: 0%; Selected TEAEs: weight decreased: 4 (3.0%); Selected TEAEs: weight increased: 0%; patients discontinued treatment early: 21.6%; patients exhibited at least one Treatment Emergent Adverse Event (TEAE): 75.4%
2 | CN(C)CCC[C@@]1(c2ccc(F)cc2)OCc2cc(C#N)ccc21 [escitalopram, 1-[3-(dimethyl-amino)propyl]-1-(p-fluorophenyl)-5-phthalancarbonitrile] | 5 (3.8%) | 24 (18.3%) | 0% | 86 (65.6%) | 1 (0.8%) | 0 | 3 (2.3%) | 2 (1.5%) | 6 (4.6%) | 3 (2.3%) | 11 (8.4%) | 1 (0.8%) | 2 (3.9%) | 0 | 0 | 1 (0.8%) | 0% | 5 (3.8%) | 0 | 0% | Selected TEAEs: libido decreased: 3 (2.3%); Selected TEAEs: libido increased: 0%; Selected TEAEs: middle insomnia: 0%; Selected TEAEs: nausea: 10 (7.6%); Selected TEAEs: orgasm abnormal: 0%; Selected TEAEs: sedation: 1 (0.8%); Selected TEAEs: sleep disorder: 0%; Selected TEAEs: somnolence: 4 (3.1%); Selected TEAEs: suicidal ideation: 0%; Selected TEAEs: vomiting: 2 (1.5%); Selected TEAEs: weight decreased: 0%; Selected TEAEs: weight increased: 3 (2.3%); patients discontinued treatment early: 18.3%; patients exhibited at least one Treatment Emergent Adverse Event (TEAE): 65.6%

Source: US7569605B2, “Methods of treating central nervous system disorders with a low dose combination of escitalopram and bupropion” (Forest Laboratories Holdings Limited, priority 2005, dated 2009)
